Measured values from US8980887B2, “2-aryl imidazo[1,2-a]pyridine-3-acetamide derivatives, preparation methods and uses thereof” (Institute of Pharmacology, priority 2010, dated 2015).

Columns and labels:
[1] = target: TSPO protein separated and purified from rat heart (Rattus norvegicus (Rat), UniProt P16257); experiment: TSPO and radioligand (3H-PK11195) competitive binding test; conditions: for Inhibition rate (%): n = 6 times
Procedure: In the present test, TSPO protein separated and purified from rat heart was used as screening target, via competitive binding test with radioligand (^3H-PK11195), to screen TSPO ligand compounds.
Wister rats, 220-260 g, female and male, were sacrificed by decapitation and the rat heart were rapidly separated, weighed and to which homogenized in 10 times volume of Tris-HCl buffer solution (50 mM Tris-HCl, 5 mM MgCl2, 1 mM EDTA, 0.5% (W/V) BSA, 1 mM PMSF, 3 μg/ml proteinase inhibitor, 0.1% NaN3, 0.32M sucrose, pH 7.4) at 15,000 rpm for 30 s, total 5 times. The homogenate was centrifuged under 1000×g for 10 minutes and the supernatant was then centrifuged under 30000×g for 20 minutes. The precipitate was collected, and resuspended with 10 times volume of Tris-HCl buffer solution (pH 7.4) relative to the original weight, then centrifuged under 30000×g for 20 minutes. The precipitate was washed with the same buffer solution, centrifuged under 30000×g for 20 minutes and the precipitate was suspended with the above buffer solution. After sub-packaged (the whole operation procedures were performed under ice bath), the product was stored at −80° C.
3) Competitive Binding Test of Drug to the Receptor (Rat Heart TSPO) and Radioligand (^3H-PK11195):
(1) tubes were placed in reaction condition of 30° C.
(2) all tubes were added with 20 μg of receptor protein in order;
(3) the test tubes were added in order with 20 μL of drugs in certain concentrations;
(4) the non-specific binding tubes were added with 20 μL of non-tagged ligand (PK11195), the final concentration of the non-tagged ligand was 0.1 mM, pre-reacted for 30 min;
(5) all tubes were added in order with 25 μL ^3H-PK11195, the final concentration of the labeled ligand was 1.5 nM;
(6) Tris-HCl Buffer pH7.4 was used to complement the reaction volumes of all tubes to reach 200 μL;
(7) the reaction was performed under 30° C. reaction condition for 1 h;
(8) Then samples were applied to 49-type glass fibre filter, vacuum suction filtered, then washed with 2 ml ice-cold Tris-HCl buffer solution (50 mM Tris-HCl buffer solution, 1 mM EDTA, 5 mM MgCl2, 1 mM PMSF, 0.1% NaN3, 3 μg/ml proteinase inhibitor, pH 7.4). The filter was dried and placed in a scintillation vial with 1 ml of scintillation fluid. The radio-activity was measured by a scintillation counter.

mice [2] = experiment: Mice open field spontaneous locomotor activity test; type: in vivo; conditions: intragastric
From the text: Experimental mechanism: the aim was to observe the effects of drugs on central nervous excitation, so as to exclude false positive reactions of anxiolytic or antidepressant effects caused by central nervous excitation.
1) Experimental device: the mice open field box was a colorless transparent organic glass box (30×36×25 cm), which bottom surface was divided into 9 lattices.
2) Experimental operation: Compound 8(8^#, YL-IPA08), Compound 10(10^#, YL-IPA10), Compound 11(11^#, YL-IPA11) and Compound 13(13^#, YL-IPA13) (separately having three dose groups of 0.03, 0.3, 3 mg/kg) and blank control (distilled water, DW) were administered intragastrically, and the test started after 55 min. During test, the mice were placed in the central area of the open field spontaneous locomotor activity observation box, started timing immediately, the spontaneous activities of mice within 5 min were recorded artificially (observation indexes: number of rearings, number of crossings).

mice [3] = experiment: Mice tail suspension test; type: in vivo
From the text: Experimental mechanism: mice tail suspension test was an acute behavioral despair model established by Steru et al (1985). […] This model was easy in operation, with good predictability, and was the most popular model for screening antidepressants. 1) Experimental device: an experimental frame with spacing boards which dividing the experimental frame into 2 experimental chambers (25×25×35 cm). A clamp is mounted on a through cross rod in the chamber. Male Kunming mice weighing 20-25 g. The mice were intragastrically administered with Compound 8, vehicle (distilled water, DW) or positive control drug (desipramine, DMI). After 1 h, wrap adhesive tape around the mouse's tail three quarters of the distance from the base of the tail and then suspend the animals by passing the suspension hook through the adhesive tape 5 cm above the table. The duration of immobility in the last 4 min of total 6 min test was recorded.

mice [4] = experiment: Mice elevated plus maze test; type: in vivo
mice [5] = experiment: Blocking effects of TSPO antagonist PK11195 on Compound 8 antidepressant activity in mice tail suspension test; type: in vivo; conditions: 3 mg/kg, ip
Procedure: The optimum dose (0.1 mg/kg) of YL-IPA08 in antidepressant effect of mice in tail suspension model was used to perform drug antagonism test, and the method was identical to that of Example 43, except that PK11195 group and PK11195+Compound 8 antagonism group with single intraperitoneal injection (ip) were added, wherein the antagonism group was administered by intraperitoneal injection with PK11195 simultaneously when Compound 8 was intragastrially administered.
Statistic method: the results were expressed in mean±SEM. The result was determined by two-way analysis of variance, and Bonferroni test was used for group comparison.

[6] = doses 0.03, 0.3, 3 mg/kg, 55 min after dosing, 5 min observation
[7] = 9 gradient concentrations, plotting and fitting

Row | SMILES | Inhibition rate (%) ([1]; 1 × 10^−5M) | Inhibition rate (%) ([1]; 1 × 10^−7M) | Inhibition rate (%) ([1]; 1 × 10^−9M) | melting point [°C] | number of rearings, number of crossings (open field spontaneous activity) versus control (mice [2]; [6]) | also measured
1 | CCN(Cc1ccccn1)C(=O)Cc1c(-c2ccc(Cl)c(Cl)c2)nc2cc(C)ccn12.Cl [Compound 8, N-ethyl-N-(2-pyridinylmethyl)-2-(3,4-dichlorophenyl)-7-methylimidazo[1,2-a]pyridine-3-acetamide.hydrochloride] | 100 | 89 | 30 | 217 to 220 | equivalent to those of the control | optimum dose in antidepressant effect (mice [3]; mice tail suspension model): 0.1 mg/kg
2 | CCN(Cc1ccncc1)C(=O)Cc1c(-c2ccc(Cl)c(Cl)c2)nc2cc(C)ccn12.Cl [Compound 10, N-ethyl-N-(4-pyridinylmethyl)-2-(3,4-dichlorophenyl)-7-methylimidazo[1,2-a]pyridine-3-acetamide.hydrochloride] | 100 | 85 | 23 | 250 to 252 | equivalent to those of the control | 
3 | COCCN(Cc1ccccn1)C(=O)Cc1c(-c2ccc(Cl)c(Cl)c2)nc2cc(C)ccn12.Cl [Compound 11, N-(2-methoxyethyl)-N-(2-pyridinylmethyl)-2-(3,4-dichlorophenyl)-7-methylimidazo[1,2-a]pyridine-3-acetamide.hydrochloride] | 100 | 65 | 29 | 236 to 238 |  | number of rearings, number of crossings (open field spontaneous activity) versus control (mice [2]; dose 3 mg/kg): equivalent to the control; number of rearings, number of crossings (open field spontaneous activity) versus control (mice [2]; doses 0.03 and 0.3 mg/kg): lower than the control
4 | CCN(Cc1ccccc1)C(=O)Cc1c(-c2ccc(C)cc2)nc2cc(C)ccn12 [Compound 13, N-benzyl-N-ethyl-2-(4-methylphenyl)-7-methylimidazo[1,2-a]pyridine-3-acetamide] | 97 | 89 | 42 | 220 to 222 | apparently lower than the control | all elevated plus maze indexes versus control (mice [4]; mice, dose 0.03, 0.3, 3 mg/kg): significantly lower than the control; IC50 [1, 7]: 6.99 nM; Ki [1, 7]: 2.97 nM
5 | CCN(Cc1ccncc1)C(=O)Cc1c(-c2ccc(Cl)cc2)nc2ccc(C)cn12.Cl [Compound 28, N-ethyl-N-(4-pyridinylmethyl)-2-(4-chlorophenyl)-6-methylimidazo[1,2-a]pyridine-3-acetamide.hydrochloride] | 84 | 33 | 0 | 229 to 231 |  | 
6 | CCC(C)N(C)C(=O)c1cc2ccccc2c(-c2ccccc2Cl)n1 (centres unmarked) [PK11195] |  |  |  |  |  | immobility time in mice tail suspension test, single administration versus control (mice [5]): no significant influence
7 | CNCCCN1c2ccccc2CCc2ccccc21 [desipramine, reference compound] |  |  |  |  |  | minimum effective dose to generate antidepression activity (mice [3]; mice tail suspension test): 30 mg/kg
8 | CN1C(=O)CN=C(c2ccccc2)c2cc(Cl)ccc21 [diazepam, reference compound] |  |  |  |  |  | minimum effective dose for generating anxiolytic-like effects (mice [4]; mice elevated plus maze, ip): 2 mg/kg
